Reference: patent US20050234046A1 (Kalypsys, Inc., priority 2004, published 2005)

Key:
Experiment in all cases: Transient transfection (transactivation) assay in CV-1 cells, GAL4-PPAR chimera, luciferase reporter
Assay type in all cases: cell-based
PPAR alpha = biological target: T1, PPAR alpha (Homo sapiens, UniProt Q07869)
T1 construct: expressed in transfected cells; host or cells: CV-1 cells
T1 sequence (Q07869 239-466 limits assumed): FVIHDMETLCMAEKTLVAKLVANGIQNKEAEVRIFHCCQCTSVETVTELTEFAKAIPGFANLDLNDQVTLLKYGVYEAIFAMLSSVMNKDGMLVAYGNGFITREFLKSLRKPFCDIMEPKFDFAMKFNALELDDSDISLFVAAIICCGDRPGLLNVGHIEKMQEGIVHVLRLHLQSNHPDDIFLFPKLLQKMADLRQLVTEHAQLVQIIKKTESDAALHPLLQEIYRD
Procedure, shortened: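 GAL4 DNA-binding domain fused to PPAR ligand binding domain, co-transfected into CV-1 cells with a luciferase reporter carrying four or five GAL4 sites. Replated cells in phenol-red free DME with 5% delipidated calf serum were treated with compound or 1% DMSO for 20-24 hours; luciferase read for EC50 and efficacy.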

PPAR delta = biological target: T2, PPAR delta (Homo sapiens, UniProt Q03181)
T2 construct: expressed in transfected cells; host or cells: CV-1 cells
T2 sequence (Q03181 211-439 limits assumed): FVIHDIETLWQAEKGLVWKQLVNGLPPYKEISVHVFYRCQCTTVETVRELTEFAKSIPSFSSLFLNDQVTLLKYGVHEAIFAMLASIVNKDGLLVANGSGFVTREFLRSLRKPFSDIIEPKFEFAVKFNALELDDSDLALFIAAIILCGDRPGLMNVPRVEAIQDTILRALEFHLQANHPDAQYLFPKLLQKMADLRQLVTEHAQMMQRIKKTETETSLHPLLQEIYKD

PPAR gamma = biological target: T3, PPAR gamma (Homo sapiens, UniProt P37231)
T3 construct: expressed in transfected cells; host or cells: CV-1 cells
T3 sequence (P37231 238-503 limits assumed): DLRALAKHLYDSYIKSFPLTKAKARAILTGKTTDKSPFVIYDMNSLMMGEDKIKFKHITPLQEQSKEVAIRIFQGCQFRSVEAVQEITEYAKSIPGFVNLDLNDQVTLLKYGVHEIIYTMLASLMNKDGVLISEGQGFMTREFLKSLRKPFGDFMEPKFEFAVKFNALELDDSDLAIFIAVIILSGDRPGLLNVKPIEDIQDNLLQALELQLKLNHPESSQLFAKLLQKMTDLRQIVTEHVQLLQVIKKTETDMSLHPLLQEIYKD

EC50 (PPAR alpha)	EC50 (PPAR delta)	EC50 (PPAR gamma)	SMILES
> 100 µM	< 5 µM	5 to 100 µM	Cc1ccc(CC(=O)O)cc1S(=O)(=O)N1CCN(c2ccc(Cl)c(Cl)c2)CC1 [Example 165, {3-[4-(3,4-Dichloro-phenyl)-piperazine-1-sulfonyl]-4-methyl-phenyl}-acetic acid]
5 to 100 µM	< 5 µM	5 to 100 µM	Cc1cc(CC(=O)O)cc(S(=O)(=O)N2CCN(c3ccc(Cl)c(Cl)c3)CC2)c1 [Example 166, {3-[4-(3,4-Dichloro-phenyl)-piperazine-1-sulfonyl]-5-methyl-phenyl}-acetic acid]
> 100 µM	< 5 µM	5 to 100 µM	Cc1cc(CC(=O)O)cc(S(=O)(=O)N2CCN(c3ccc(Cl)cc3)CC2)c1 [Example 167, {3-[4-(4-Chloro-phenyl)-piperazine-1-sulfonyl]-5-methyl-phenyl}-acetic acid]
> 100 µM	5 to 100 µM	5 to 100 µM	Cc1cccc(N2CCN(S(=O)(=O)c3cc(C)cc(CC(=O)O)c3)CC2C)c1 (stereo not drawn) [Example 168, [3-Methyl-5-(3-methyl-4-m-tolyl-piperazine-1-sulfonyl)-phenyl]-acetic acid]
> 100 µM	5 to 100 µM	5 to 100 µM	Cc1cc(CC(=O)O)cc(S(=O)(=O)N2CCN(c3ccc(C)c(C)c3)CC2)c1 [Example 169, {3-[4-(3,4-Dimethyl-phenyl)-piperazine-1-sulfonyl]-5-methyl-phenyl}-acetic acid]
> 100 µM	5 to 100 µM	> 100 µM	Cc1cc(CC(=O)O)cc(S(=O)(=O)N2CCN(c3ccc(F)cc3F)CC2)c1 [Example 170]
> 100 µM	5 to 100 µM	5 to 100 µM	Cc1cc(CC(=O)O)cc(S(=O)(=O)N2CCN(c3cccc(Cl)c3)CC2)c1 [Example 171, {3-[4-(3-Chloro-phenyl)-piperazine-1-sulfonyl]-5-methyl-phenyl}-acetic acid]
> 100 µM	> 100 µM	> 100 µM	Cc1cc(CC(=O)O)cc(S(=O)(=O)N2CCN(c3ccccc3F)CC2)c1 [Example 172, {3-[4-(2-Fluoro-phenyl)-piperazine-1-sulfonyl]-5-methyl-phenyl}-acetic acid]
> 100 µM	5 to 100 µM	> 100 µM	Cc1cc(CC(=O)O)cc(S(=O)(=O)N2CCN(c3ccc(F)cc3)CC2)c1 [Example 173, {3-[4-(4-Fluoro-phenyl)-piperazine-1-sulfonyl]-5-methyl-phenyl}-acetic acid]
> 100 µM	> 100 µM	> 100 µM	Cc1cc(CC(=O)O)cc(S(=O)(=O)N2CCN(c3ccccc3)CC2)c1 [Example 174, [3-Methyl-5-(4-phenyl-piperazine-1-sulfonyl)-phenyl]-acetic acid]
5 to 100 µM	< 5 µM	5 to 100 µM	Cc1ccc(S(=O)(=O)N2CCN(c3ccc(Cl)c(Cl)c3)CC2)cc1CC(=O)O [Example 175, {5-[4-(3,4-Dichloro-phenyl)-piperazine-1-sulfonyl]-2-methyl-phenyl}-acetic acid]
> 100 µM	< 5 µM	5 to 100 µM	Cc1ccc(S(=O)(=O)N2CCN(c3ccc(Cl)cc3)CC2)cc1CC(=O)O [Example 176, {5-[4-(4-Chloro-phenyl)-piperazine-1-sulfonyl]-2-methyl-phenyl}-acetic acid]
> 100 µM	5 to 100 µM	5 to 100 µM	Cc1cccc(N2CCN(S(=O)(=O)c3ccc(C)c(CC(=O)O)c3)CC2C)c1 (stereo not drawn) [Example 177, [2-Methyl-5-(3-methyl-4-m-tolyl-piperazine-1-sulfonyl)-phenyl]-acetic acid]
> 100 µM	5 to 100 µM	5 to 100 µM	Cc1ccc(S(=O)(=O)N2CCN(CCc3ccccc3)CC2)cc1CC(=O)O [Example 178, [2-Methyl-5-(4-phenethyl-piperazine-1-sulfonyl)-phenyl]-acetic acid]
